Entries after “also recorded” stand apart in the source; their conditions may differ.

The subject of assay [1] is isolated rat aorta. In words: In vitro induction of tolerance and cross-tolerance: vasorelaxation of pre-exposed rat aortic rings. In kind it is cell-based. To be noted: in words; for tolerance induction in vitro: rings pre-treated with epinephrine and then with the same compound (0.44 mM) versus control. The procedure:
Aortic rings were prepared as described hereinabove, and were exposed to 0.44 mM GTN (vehicle was water:ethanol:propyleneglycol at proportional ratio of 1:1:1) for 1 hour before CCRC construction, to thereby induce tolerance to nitroglycerine. At the end of the tolerance induction period, rings were thrice washed with the path buffer (Krebs-bicrbonate) every 15 minutes for the following hour and then CCRC for vasorelaxation on GTN-induced tolerance rings were constructed for GTN (pretreated versus untreated rings, FIG. 15), in order to verify the ability to induce and measure GTN tolerance induction in vitro Attempted induction of tolerance to the NO-donating compounds of the present invention was performed under the same conditions as for GTN. Thus, in an exemplary experiment, rings were exposed to 0.44 mM solution of Pet-3 in the attempt to induce tolerance for Pet-3. CCRC were then measured for the vasorelaxing effect of Pet-3 on a group of rings which were pre-exposed to Pet-3 as to induce tolerance to Pet-3, and for an untreated control group. The above protocol was repeated with Pet-2, Pet-7, Pet-8, Pet-12, Pet-24, Pet-43, Pet-149 and Pet-152.
Cross-tolerance studies were conducted using the same technique described above for measuring vasorelaxation of aortic rings from rats. Two groups of aortic rings samples were pre-treated with GTN, then one group was measured for vasorelaxation by GTN and the second group for vasorelaxation by Pet-12, an exemplary NO-donor according to the present invention. For the opposite cross-tolerance studies, two groups of aortic rings samples were pre-treated with Pet-12, then one group was measured for vasorelaxation by GTN and the second group for vasorelaxation by Pet-12.

Assay [2] relates to isolated rat aorta. In words: In vitro vasorelaxation of epinephrine-contracted rat aortic rings (CCRC). It is filed as cell-based. The conditions noted are these: isolated rat aorta pre-treated in vitro with 1 μM epinephrine; for vasorelaxation effect as compared with glyceryltrinitrate: in words. From the text:
Male Sprague Dawley rats were anaesthetized using intraperitoneal injection of ketamine and xylazine (50 and 10 milligram per kilogram, respectively) and the thoracic aorta, the large upper portion of the descending aorta, starting at the caudal border of the chest bone, was removed thereafter, while carefully removing the paraadventetial tissue surrounding the vessel. Aortae were cut into rings of 4-5 millimeters and mounted onto the tissue path. The path buffer (Krebs-bicrbonate) was constantly gassed with carbogen and maintained at 37° C. The rings were preloaded under 2 g tension and equilibrated for 90 minutes, while refreshing the buffer every 15 minutes. After stabilization, the rings were contracted with epinephrine (1 μM). Cumulative Concentration—Response Curves (CCRC) were measured for the vasorelaxing effect induced by adding various concentrations, ranging from 10^−10 M to 10^−5 M of Pet-2, Pet-3, Pet-7, Pet-8, Pet-12, Pet-24, Pet-43, Pet-59, Pet-147, Pet-152 and Pet-154, and glyceryltrinitrate (GTN), according to the procedure described in Feelich et al., Molecular Pharmacology, 56:243-253 (1999), The vehicle, which was used for this experiment was water:ethanol:propyleneglycol at proportional ratio of 1:1:1.
The vasorelaxing effect of the thiazole-derived NO-donors according to the present invention was measured on slices of thoracic aorta of rats contracted with epinephrine, as described hereinabove.

Assay [3] relates to c-GMP in slices of thoracic aorta of rats. Kind of assay: Cyclic-GMP measurement in aortic rat tissue (radioimmunoassay). To be noted: isolated rat aorta; FIGS. 25, 27, 33; in words. It is filed as cell-based. How it is done:
GTN (10^−6 M) was added to the chamber and, 1 minute after exposure to the drug, rings (usually 3-5) were taken, wrapped with aluminum foil and immediately frozen in liquid nitrogen for storage. Control sample group was treated with the vehicle solution only. At the time of analysis, rings were thawed, blotted over a dry gauzed and weighted. A known weight of tissue was homogenized in 2 ml ice-cold modified Hank's balanced salt solution containing (in gram/liter) NaCl 8; KCl 0.4; glucose 1; KH2PO4 0.06; Na2HPO4 0.047; Phenol red 0.017 and further containing 25 mM EDTA (disodium salt). The homogenate was centrifuged at 4000 g (force units) for 10 minutes at 2-4° C. and the supernatant was thereafter transferred into fresh pre-cooled test tube containing 1 ml of acetonitrile. The tubes were vortex mixed for a few seconds and subsequently centrifuged at 4000 g for 5 minutes at 2-4° C., to remove the precipitated protein. Each supernatant was transferred into a clean test tube and evaporated to dryness under a stream of nitrogen at 55° C. The dry residue was reconstituted with 10 volumes of Tris-EDTA buffer pH 7.5 (0.05 M Tris containing 4 mM EDTA). Aliquots of 100 μl of the reconstituted solution in duplicate were used for c-GMP measurements using Amersham RIA kit, as is described in Haj-Yehia & Benet [Pharmacology, 1995, 273, 1, pp. 94-100]. Standard curves were plotted with six concentrations (0, 0.5, 1, 2, 4 and 8 pmoles of c-GMP per tube).
The NO-tolerance effect of GTN and NO-donor compounds according to the present invention was measured by following the production of c-GMP in slices of thoracic aorta of rats. Thus, the production of c-GMP was measured as described in the methods section above for the reference NO-donor compound GTN, and for the NO-donors of the present invention Pet-2, Pet-3, Pet-7, Pet-8, Pet-10, Pet-12, Pet-24, Pet-59, Pet-147, Pet-149, Pet-152, Pet-154 and Pet-155.

The subject of assay [4] is cyclic-GMP in isolated aorta of rats pre-treated in vivo. Kind of assay: Induction of in vivo nitrate tolerance: cGMP in aorta of rats infused for 16 hours. Set-up: species or system rat. To be noted: rats infused 200 μg/hour for 16 hours, aorta then exposed to 1 μM; in words. The procedure:
For c-GMP levels and tolerance development, the rat's thoracic aorta was isolated after exposure to the tested compound in vivo, and measured as described above in the in vitro assays.
Male Sprague Dawley rats (220 to 250 grams) were housed under constant temperature and humidity conditions. Light was maintained at a 12/12 light dark cycle. Except for 12 hours before the experiment, when food fasting was initiated, all rats had free access to standard rat pellet diet and tap water. The animals were anesthetized by intraperitoneal injection of ketamine and xylazine combination (50 and 10 milligram per kilogram, respectively). […] The catheters were filled with normal saline solution containing 1000 IU/ml of heparin and plugged with a metal pin. Catheters were externalized to the back of the neck region and secured by a polyester felt disk.
After implantation, the rats were individually housed until they regained their preoperative weight and appeared healthy (3 to 4 days post-operation). At this time point (day 0), an osmotic mini-pump (Alza Corp., Palo Alto, Calif.) delivering constant volume (10 μl/hour) of vehicle or drug was connected to one of the intravenous catheters.
For inducing tolerance to the tested NO-donor according to the present invention, the animals received 200 μg/hour of the tested compound for 16 hours (short-term-induced tolerance). […]

Consider `Cc1nc(Nc2nc(C)c(CCO[N+](=O)[O-])s2)sc1CCO[N+](=O)[O-]` [Pet-43, Bis-[4-methyl-5-(2-nitrooxy-ethyl)-thiazol-2-yl]-amine], for which, in the assay with isolated rat aorta [1], the “tolerance induction in vitro” value is “absence of tolerance induction”. Besides, the “vasorelaxation effect as compared with glyceryltrinitrate” value in the assay on isolated rat aorta [2] is reported as “superior vasorelaxation effect”.
As to `Cc1nc(Nc2cccc3ccccc23)sc1CCO[N+](=O)[O-]` [Pet-149, [4-Methyl-5-(2-nitrooxy-ethyl)-thiazol-2-yl]-naphthalen-1-yl-amine], in assay [3], the “levels of cGMP as compared with GTN” value is listed as “increased levels of cGMP”. Further, the “tolerance induction in vitro” value with isolated rat aorta [1] was “absence of tolerance induction”. Moreover, the “vasorelaxation effect as compared with glyceryltrinitrate” value in the assay on isolated rat aorta [2] was “superior vasorelaxation effect”.
`CCNc1nc(C)c(CCO[N+](=O)[O-])s1` [Pet-147, Ethyl-[4-methyl-5-(2-nitrooxy-ethyl)-thiazol-2-yl]-amine]: the “levels of cGMP as compared with GTN” value in assay [3] was “increased levels of cGMP”.
For `Cc1nc(NC(=O)[C@@H](C)c2ccc(CC(C)C)cc2)sc1CCO[N+](=O)[O-]` (stereo in doubt) [Pet-152, 2-(4-Isobutyl-phenyl)-N-[4-methyl-5-(2-nitrooxy-ethyl)-thiazol-2-yl]-propionamide], the “levels of cGMP as compared with GTN” value in assay [3] was “increased levels of cGMP”. Also, in the assay on isolated rat aorta [2], the “vasorelaxation effect as compared with glyceryltrinitrate” value is on record as “superior vasorelaxation effect”.
For the compound `Cc1nc(NC(=O)c2cccnc2)sc1CCO[N+](=O)[O-]` [Pet-154, N-[4-methyl-5-(2-nitrooxy-ethyl)-thiazol-2-yl]-nicotinamide], the “levels of cGMP as compared with GTN” value in assay [3] was “increased levels of cGMP”.
Regarding `Cc1nc(-c2ccc(C(F)(F)F)cc2)sc1CCO[N+](=O)[O-]` [Pet-59, 4-Methyl-5-(2-nitrooxy-ethyl)-2-(4-trifluoromethyl-phenyl)-thiazole], the “levels of cGMP as compared with GTN” value in assay [3] is on record as “increased levels of cGMP”. The “vasorelaxation effect as compared with glyceryltrinitrate” value with isolated rat aorta [2] is on record as “superior vasorelaxation effect”.
On to `Cc1nc(-c2cccnc2)sc1CCO[N+](=O)[O-]` [Pet-12, 3-[4-Methyl-5-(2-nitrooxy-ethyl)-thiazole-2-yl]-pyridine], for which, in the assay with isolated rat aorta [1] (rat aortic rings pre-treated with epinephrine and then with GTN), the “cross-tolerance: vasorelaxation in rings pre-treated with GTN” value was “absence of tolerance induction effect; also recorded: no effect”. Moreover, in the assay with isolated rat aorta [1] (rat aortic rings pre-treated with epinephrine and then with Pet-12), the “cross-tolerance: vasorelaxation in rings pre-treated with Pet-12” value is “absence of tolerance induction effect; also recorded: does not evoke tolerance to itself not to GTN”. In addition, the “tolerance induction in vitro” value in the assay with isolated rat aorta [1] was “absence of tolerance induction”. Further, the “level of cGMP following a repeated treatment in vivo (tolerance induction)” value in assay [4] is recorded as “absence of tolerance induction; also recorded: lack of tolerance induction”.
Take `C=CCNc1nc(C)c(CCO[N+](=O)[O-])s1` [Pet-155, allyl-[4-methyl-5-(2-nitrooxy-ethyl)-thiazol-2-yl]-amine]: the “levels of cGMP as compared with GTN” value in assay [3] is given as “increased levels of cGMP”. Further, in the assay on isolated rat aorta [2], the “vasorelaxation effect as compared with glyceryltrinitrate” value was “superior vasorelaxation effect”.
As to `Cc1nc(N(C)C)sc1CCO[N+](=O)[O-]` [Pet-7, Dimethyl-[4-methyl-5-(2-nitrooxy-ethyl)-thiazol-2-yl]-amine], in assay [3], the “levels of cGMP as compared with GTN” value is “increased levels of cGMP”. In addition, in the assay with isolated rat aorta [1], the “tolerance induction in vitro” value is “absence of tolerance induction”. Moreover, in the assay with isolated rat aorta [2], the “vasorelaxation effect, fold higher than glyceryltrinitrate” value came to 10 fold and the “vasorelaxation effect as compared with glyceryltrinitrate” value is reported as “superior”.
For `Cc1nc(N)sc1CCO[N+](=O)[O-]` [Pet-10, 4-methyl-5-(2-nitrooxy-ethyl)-thiazole-2-ylamine], the “levels of cGMP as compared with GTN” value in assay [3] is “increased levels of cGMP”.
For the compound `CNc1cncc(-c2nc(C)c(CCO[N+](=O)[O-])s2)n1` [Pet-24, Methyl-{6-[4-methyl-5-(2-nitrooxy-ethyl)-thiazol-2-yl]-pyrazin-2-yl}-amine], in assay [3], the “levels of cGMP as compared with GTN” value is given as “increased levels of cGMP”. For the same compound, in the assay with isolated rat aorta [1], the “tolerance induction in vitro” value is recorded as “absence of tolerance induction”.
For the compound `Cc1nc(-c2ccccc2)sc1CCO[N+](=O)[O-]` [Pet-8, 4-Methyl-5-(2-nitrooxy-ethyl)-2-phenyl-thiazole], in assay [3], the “levels of cGMP as compared with GTN” value was “increased levels of cGMP”. In addition, in the assay on isolated rat aorta [2], the “vasorelaxation effect as compared with glyceryltrinitrate” value is recorded as “superior vasorelaxation effect”.
In the case of `Cc1nc(C)c(CCO[N+](=O)[O-])s1` [Pet-3, 2,4-Dimethyl-5-(2-nitrooxy-ethyl)-thiazole], the “levels of cGMP as compared with GTN” value in assay [3] is “increased levels of cGMP”. In addition, in the assay with isolated rat aorta [1], the “tolerance induction in vitro” value is reported as “absence of tolerance induction”. The “vasorelaxation effect as compared with glyceryltrinitrate” value in the assay with isolated rat aorta [2] is given as “superior vasorelaxation effect”.

The values above are taken from US7498445B2, “Thiazole-based nitric oxide donors capable of releasing two or more nitric oxide molecules and uses thereof” (priority 2004, dated 2009).
